Test results published in US20050271588A1, “Liposome targeting of matrix metalloproteinase inhibitors” (priority 2001, published 2005).
One block for each compound: values may come before it. Positions of bridges follow the written chain, without caps; N, C: chain ends. No end group written: not given here.

Columns and labels:
[1] = system: HT1080 cells; test: Blocking of CTT-liposome uptake by antibodies and proteinase inhibitors; type: cell-based, human; details: TIMP-2 10 μg/ml, Marimastat 50 μM, EDTA 500 μM, aprotinin 1 μg/ml
Method: We further investigated if cell surface-bound gelatinases were the receptors for the CTT-containing liposomes. Cells were washed to remove soluble forms of gelatinases, and then preincubated for 30 min with MMP inhibitors or specific antibodies before the addition of liposomes.
(§1) We also preincubated cells with phorbol ester (TPA) (50 nM). Preincubation times varied from 15 to 75 min. Treatment of cells by phorbol ester (TPA) increases both expression and secretion of MMP-9 (Toth et al., 1997). […] M-17 inhibits the binding of MMP-9 to the substrate and this inhibition is expected to be concentration dependent. It is not known if rabbit polyclonal antibody blocks human MMP-2 (Murphy et al., 1994). Final concentrations of the indicated peptide, Adriamycin, antibodies and liposomes were 85 μM, 0.2 mM, 20 μg/ml, and 0.4 μM, respectively.

[2] = system: cells; test: Effect of phorbol ester (TPA) preincubation on CTT-liposome uptake; type: cell-based; details: TPA 50 nM
Method: as §1, with “1997). Results are presented as RFI=I/I0, where RFI is relative fluorescence intensity, I0 is the emission intensity for the control, 2 μM rhodamine B in LUVs without the peptides, and I is the rhodamine emission for the peptide-liposome complexes taken up by the cells.” for “1997).”

[3] = system: U937 cells; test: Uptake of liposome-encapsulated rhodamine B by U937 cells; type: cell-based; details: U937, fluorescence plate-reader
Method: In another series of experiments the water-soluble fluorescent marker rhodamine B was encapsulated into liposomes and its uptake by cells was measured. Samples for rhodamine B uptake were prepared by mixing 60 μl of POPC/POPE (80/20, mol/mol, one mM) liposomes containing 10 μM rhodamine B to 300 μl of DMEM medium supplemented with 10% fetal bovine serum, Glutamax I, penicillin 100 U/ml and streptomycin 0.1 mg/ml. Peptides were then added to obtain a final concentration of […]. Ten μl (10^5 cells) of medium containing the indicated cells were combined with the LUVs. After an incubation for 15 min at 37° C. or +4° C. liposomes not bound to the cells were removed from 96-well plates by rinsing three times with cold PBS. The +4° C. temperature served as a control for non-endocytotic liposome uptake by cells (Oess and Hildt, 2000). The relative amount of rhodamine B associated with the cells was determined using microplate reader with excitation at 535 nm and emission at 595 nm.
as §1, with “1997). Results are presented as RFI=I/I0, where RFI is relative fluorescence intensity, I0 is the emission intensity for the control, 2 μM rhodamine B in LUVs without the peptides, and I is the rhodamine emission for the peptide-liposome complexes taken up by the cells.” for “1997).”
Cell cultures and fluorescence microscopy. U937 (ECACC 85011440), HT 1080 (ECACC 85111505), and CHO (ECACC 85050302) cells were cultured in RPMI or DMEM medium supplemented with 10% fetal bovine serum, Glutamax I, penicillin (100 U/ml), and streptomycin (0.1 mg/ml). Uptake of rhodamine B containing liposomes by the cultured cells was verified by fluorescence microscopy. An inverted fluorescence microscope (Zeiss IM 35) equipped with Nikon extra long working distance objectives (20×) and (40×) were used. Samples were prepared as described for the rhodamine uptake assay, with slight modifications. Accordingly, instead of washing, U937, HT 1080, and CHO cells with the rhodamine-containing liposomes and in cell culture medium were transferred into Nunclon 48 plate wells. Excitation and emission wavelengths were selected by suitable bandpass filters (Melles-Griot) transmitting in the range 535 nm and >600 nm, respectively. Fluorescence images were viewed with a Peltier-cooled digital camera (C4742-95, Hamamatsu, Japan) connected to a computer and operated by software (Hipic 5.0) provided by the instrument manufacturer.

[4] = system: U937 cells; test: Cell killing by Adriamycin-containing liposomes, EthD-1 viability assay; type: cell-based; details: U937, 24 h, peptide 85 μM, Adriamycin 0.4 μM
Method: Viability assays. Peptide-liposome complexes with the encapsulated adriamycin were made as described above, yielding final concentrations of peptide, lipid, and adriamycin of 85 μM, 0.2 mM, and 0.4 μM, respectively, and were subsequently added to a ten μl (10^5 cells) sample of U937 cells. For the detection of dead cells EthD-1 was used. This fluorophore is membrane-impermeable and emits fluorescence only when bound to DNA (Papadopoulos et al., 1994). Accordingly, EthD-1 readily enters dead cells and binds to their DNA, its fluorescence intensity correlating to the amount of dead cells. EthD-1 emission was measured using microplate reader with excitation at 495 nm and emission at 635 nm. Student's t-test was used to assess statistical significance.

[5] = Penetration of peptides into lipid monolayers (surface pressure); type: physicochemical; details: eggPC monolayer, peptide 200 μM
Method: Interaction of peptides with lipid monolayers. Penetration of peptides into mono-molecular lipid films was measured using magnetically stirred circular wells (subphase volume 400 μl). Surface pressure (π) was monitored with a Wilhelmy wire attached to a microbalance (μ TroughS, Kibron Inc., Helsinki, Finland) connected to a Pentium PC. Lipids were spread on the air-buffer (PBS, pH 7) interface in chloroform (approx. one mg/ml) to different initial surface pressures (π0) and were allowed to equilibrate for 15 min before the addition of the indicated peptides (4 μ1,10 mg/ml in H2O and CWL in DMSO) into the subphase. The increment in π from the initial surface pressures (π0) after the addition of peptide was complete in approximately 20 min and the difference between π0 and the value observed after binding of the peptide into the film was taken as Δπ. All measurements were performed at ambient temperature (˜+24° C.). The data are represented as Δπ vs. […] (Brockman, 1999).

[6] = Assay for lipid mixing (liposome fusion, NBD-PE/DPPRho); type: physicochemical; details: within 15 min
Method: The extent of exposure of Trp to the aqueous phase was studied using I— as a collisional quencher (Lakowicz, 1999). The extent of quenching was calculated by using the equation: F0/F=1+k[Q]=1+kqτ0[Q] where F0 and F are Trp fluorescence intensities at 345 nm in the absence and presence of the quencher, Q, τ0 is Trp fluorescence lifetime in the absence of the quencher, k is the Stern-Volmer constant (obtained from the slope of the linear fit of the data). Fluorescence of Trp in CTT (5 μM) and its quenching were measured in the absence and presence of POPC/POPE (80:20, mol/mol) LUVs (final lipid concentration of 0.5 mM). The results were corrected for background caused by PBS and liposomes. Assay for lipid mixing. The ability of the CTT, CLP, STT, and CWL peptides to induce liposome fusion was assessed by measuring lipid mixing, as described earlier (Struck et al., 1981). In brief, NBD-PE (X=0.01) and DPPRho (X=0.01) were incorporated into liposomes (POPC/POPE, 78/20, mol/mol). Due to the spectral overlap of NBD-PE (donor) emission and DPPRho (acceptor) absorption resonance energy transfer between these dyes is highly efficient. As liposomes containing NBD-PE and DPPRho are mixed with non-labeled liposomes, fusion is observed as an increase in the emission intensity of NBD-PE due to the dilution of probes. Excitation and emission wavelengths for NBD-PE at 430 nm and 530 nm were used. All fluorescence measurements were done at 37° C.

[7] = target: T1, MMP-2 (Homo sapiens, UniProt P08253); test: Casein zymography, inhibition of MMP-2; type: biochemical; details: 85 μM peptide
T1 construct: purchased Boehringer Mannheim GmbH (Germany)
T1 sequence (P08253 110-660): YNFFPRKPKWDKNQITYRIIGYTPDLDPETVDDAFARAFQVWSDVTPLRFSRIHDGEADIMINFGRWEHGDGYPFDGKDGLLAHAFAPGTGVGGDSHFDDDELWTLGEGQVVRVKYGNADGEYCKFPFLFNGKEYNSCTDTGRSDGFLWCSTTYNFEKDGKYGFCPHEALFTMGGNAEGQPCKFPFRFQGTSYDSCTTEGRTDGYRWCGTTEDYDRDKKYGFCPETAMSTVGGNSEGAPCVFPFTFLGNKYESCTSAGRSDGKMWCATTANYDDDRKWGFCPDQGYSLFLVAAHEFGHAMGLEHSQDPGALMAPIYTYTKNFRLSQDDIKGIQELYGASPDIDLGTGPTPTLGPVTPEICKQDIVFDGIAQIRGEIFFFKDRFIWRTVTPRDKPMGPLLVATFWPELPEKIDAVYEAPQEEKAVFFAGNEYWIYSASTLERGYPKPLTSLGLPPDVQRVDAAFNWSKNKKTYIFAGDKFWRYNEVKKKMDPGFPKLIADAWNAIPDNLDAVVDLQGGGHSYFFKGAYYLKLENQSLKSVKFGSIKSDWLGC
Method: Assay for gelatinases. Inhibition of MMP-9 and MMP-2 by the different synthetic peptides was measured using casein zymography (Halinen et al., 1996). MMP-9 was purified as described (Sorsa et al., 1997). Subsequently, MMP-2 (2.5 μg) or MMP-9 (2.5 μg) was run on a 10% SDS-PAGE containing two mg/ml casein. The gel was first washed in Triton X-100 containing buffer to remove SDS, and it was cut into five slices which were immersed into peptide (CTT, CLP, CWL or STT) containing solutions (85 μM). After incubation for 48 hrs at 37° C., the gels were stained with Coomassie blue, scanned, and the digested areas quantitated using image analysis (Global Lab Image 3.2, Data Translation Inc. and Acuity Imaging Inc., Marlboro, Mass., USA).

[8] = target: T2, MMP-9 (Homo sapiens, UniProt P14780); test: Gelatinase assay with fluorogenic peptide substrate; type: biochemical; details: 100 μM EDTA, MMP-9 5 nM
T2 construct: made in house
Method: The activity of MMP-9 was measured also using the fluorogenic peptide substrate MCA-Pro-Leu-Ala-Nva-Dpa-Ala-Arg (Calbiochem, San Diego, Calif., USA). More specifically, 50 ng of MMP-9 was preincubated in PBS for 30 min at RT in the absence or presence of CTT or its liposome complex. Subsequently, the fluorogenic substrate was added to a final concentration of 0.1 mM and the incubation was continued at 37° C. for 15 min, whereafter fluorescence intensities were measured with exitation at 340 nm and emission at 390 nm in a microtiter plate reader.

T2 sequence (P14780 94-707): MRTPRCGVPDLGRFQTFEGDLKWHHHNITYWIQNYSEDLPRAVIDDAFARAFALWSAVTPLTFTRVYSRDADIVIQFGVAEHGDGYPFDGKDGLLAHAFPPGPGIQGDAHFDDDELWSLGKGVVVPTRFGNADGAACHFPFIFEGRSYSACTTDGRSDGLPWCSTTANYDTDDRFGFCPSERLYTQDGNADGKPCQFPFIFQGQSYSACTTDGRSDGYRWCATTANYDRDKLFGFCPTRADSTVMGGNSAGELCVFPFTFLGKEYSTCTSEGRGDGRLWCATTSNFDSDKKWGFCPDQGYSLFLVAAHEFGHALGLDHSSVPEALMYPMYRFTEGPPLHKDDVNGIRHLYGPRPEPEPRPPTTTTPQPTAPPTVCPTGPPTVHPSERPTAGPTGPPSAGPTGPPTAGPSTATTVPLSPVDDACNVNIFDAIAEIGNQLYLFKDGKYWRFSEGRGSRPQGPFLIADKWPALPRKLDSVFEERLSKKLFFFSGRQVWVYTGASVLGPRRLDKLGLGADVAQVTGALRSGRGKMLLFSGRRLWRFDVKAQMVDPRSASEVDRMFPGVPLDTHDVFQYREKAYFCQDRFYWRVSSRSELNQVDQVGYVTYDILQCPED

Compound: CNC(=O)[C@@H](NC(=O)[C@H](CC(C)C)[C@H](O)C(=O)NO)C(C)(C)C [Marimastat]
Inhibition of liposome transfer into cells [1]: approx. 50%

Compound: aprotinin
Inhibition of liposome transfer into cells [1]: no significant inhibitory effect

Compound: CCCCCCCCCCCCCC(=O)O[C@@H]1[C@@H](C)[C@@]2(O)[C@@H](C=C(CO)C[C@]3(O)C(=O)C(C)=C[C@@H]23)[C@H]2C(C)(C)[C@]12OC(C)=O [TPA]
Effect on uptake of CTT-liposomes ([2]; prolonged incubation (75 min)): inhibited | Effect on uptake of CTT-liposomes ([2]; short exposure time (15 min)): increased

Compound: Cys-Trp-Leu-Thr-Phe-Thr-His-Gly-Thr-Cys (CWLTFTHGTC; disulfide 1-10) [scrambled cyclic peptide, reference compound]
Enhancement of uptake of liposome-encapsulated rhodamine vs liposomes lacking peptide [3]: inefficient | Increase in killing of cells vs Adriamycin liposomes without peptide [4]: not

Compound: CLPGHWGFPSC (cysteine pairing not given here) [CTT homolog, part of EGF-7 domain in human laminin β-1 chain]
Enhancement of uptake of liposome-encapsulated rhodamine vs liposomes lacking peptide [3]: Only minor effect | Initial monolayer packing pressure above which membrane penetration was abolished [5]: 33 mN/m | Increase in killing of cells vs Adriamycin liposomes without peptide [4]: 1.3 fold | Lipid mixing / vesicle fusion (NBD-PE emission) [6]: lack of lipid mixing

Inhibition of MMP-2 activity [7]: approx. 30%
Compound: STTHWGFTLS
Enhancement of uptake of liposome-encapsulated rhodamine vs liposomes lacking peptide [3]: Only minor effect | Initial monolayer packing pressure above which membrane penetration was abolished [5]: 31 mN/m | Increase in killing of cells vs Adriamycin liposomes without peptide [4]: 1.7 fold | Lipid mixing / vesicle fusion (NBD-PE emission) [6]: lack of lipid mixing

Inhibition of MMP-9 [8]: Complete inhibition
Compound: O=C(O)CN(CCN(CC(=O)O)CC(=O)O)CC(=O)O [EDTA, reference compound]
